In patent US4374136A, “Pyrimidine derivatives” (May & Baker Limited, priority 1980, dated 1983):
Where two headings read alike, the source gives them in different places.

Columns and labels:
[1] = test system: Plasmodium yoelii nigeriensis (strain PR); test: Antimalarial activity in mice, pyrimethamine-resistant Plasmodium yoelii nigeriensis strain PR, oral daily for 4 days; assay type: in vivo; conditions: for Number of mice cured: PR; for ED50: Plasmodium yoelii, 504 h, strain PR, oral daily for 4 days from day of infection, 21 days observation, read-out: CD50 (dose required to cure 50% of mice tested)
Protocol: (§1) (a) The test compounds were tested in mice, against Plasmodium yoelii nigeriensis (strain N67), which is sensitive to pyrimethamine, and against a strain of Plasmodium yoelii nigeriensis [strain PR (derived from strain N67)] which is resistant to pyrimethamine, and also against pyrimethamine sensitive Plasmodium berghei (strain N30).
(§2) In the experiments, the mice were each infected intraperitoneally with about 10^6 trophozoites. The test compound was administered orally daily for 4 days, beginning on the day of infection, and peripheral blood smears of the mice were observed 2 or 3 times per week for a total of 21 days. The numbers of mice cured were counted and the dose required to cure 50% of mice tested (CD50) was calculated.

dogs = test: Toxicity in dogs, oral; assay type: in vivo
malaria = test: Comparative activity against malaria (general statement); assay type: in vivo
Source text: The properties of the compound of formula III are illustrated by the following laboratory tests.

[2] = test system: Plasmodium berghei (strain N30); test: Antimalarial activity in mice, Plasmodium berghei strain N30, oral daily for 4 days; assay type: in vivo; conditions: for Number of mice cured: 24 mice tested; for ED50: Plasmodium berghei, 504 h, read-out: CD50 (dose required to cure 50% of mice tested)
Protocol: as §1, §2

[3] = test system: Plasmodium yoelii nigeriensis (strain N67); test: Antimalarial activity in mice, Plasmodium yoelii nigeriensis strain N67, oral daily for 4 days; assay type: in vivo; conditions: for ED50: Plasmodium yoelii, 504 h, read-out: CD50 (dose required to cure 50% of mice tested)
Protocol: as §1, §2

[4] = test system: Plasmodium yoelii nigeriensis (strain N67); test: Single oral dose antimalarial test in mice infected with strain N67; assay type: in vivo, Plasmodium yoelii nigeriensis; mice; conditions: for ED50: Plasmodium yoelii
Protocol: (b) Mice were each infected intraperitoneally with about 10^6 trophozoites of strain N67 of Plasmodium yoelii nigeriensis. […] The numbers of mice cured were counted and the dose required to cure 50% of mice tested (CD50) was calculated.
The results obtained are shown below in Table II, in comparison with a test using pyrimethamine against the same organism.

[5] = Acute oral toxicity in mice; assay type: in vivo; conditions: mouse, in vivo; single oral dose, mice; read-out: LD50 (dose required to kill 50% of the mice tested)
Protocol: (§3) Mice were treated with a single dose of the compound of formula III by the oral route, and were observed until all survivors had appeared to be healthy for 3 consecutive days. The LD50 dose (dose required to kill 50% of the mice tested) was then calculated.
(§4) In a similar test on reference compound RCA an oral dose of 1000 mg/kg killed 2 out of 5 mice, giving an LD50 figure of […].

mice = test: Acute oral toxicity in mice; assay type: in vivo; conditions: 5 mice tested
Protocol: as §3, §4

[6] = 504 h, one single oral dose 48 hours after infection, strain N67, read-out: CD50 (dose required to cure 50% of mice tested)

## Cc1nc(N)nc(N)c1OCCCOc1ccc(-c2ccc(Cl)cc2)cc1 [compound of formula III, 2,4-diamino-5-[3-{4-(4-chlorophenyl)phenoxy}propoxy]-6-methylpyrimidine]
[1]; daily dose 0.2 mg/kg, 16 mice tested
  Number of mice cured: 0 mice
[1]; daily dose 2.0 mg/kg, 16 mice tested
  Number of mice cured: 3 mice
[1]; daily dose 20.0 mg/kg, 15 mice tested
  Number of mice cured: 15 mice
[1]
  ED50: 3 mg/kg
dogs; 15 mg/kg/day (highest dosage), 6 dogs
  Number of dogs in which clinically well-tolerated: 5 dogs
dogs; oral gelatin capsules, one month, 1, 3 and 9 mg/kg/day
  Clinical tolerance in dogs: clinically well-tolerated
dogs; versus reference compound RCA
  Toxicity in dogs in comparison: much less toxic in dogs than reference compound RCA
malaria; sensitive and resistant strains of malaria, versus reference compound RCA
  Antimalarial activity in comparison: very much more active than reference compound RCA
[2]; N30, daily dose 0.125 mg/kg
  Number of mice cured: 0 mice
[2]; N30, daily dose 0.5 mg/kg
  Number of mice cured: 14 mice
[2]; N30, daily dose 2.0 mg/kg
  Number of mice cured: 24 mice
[2]; strain N30, oral daily for 4 days from day of infection, 21 days observation
  ED50: 0.45 mg/kg
[3]; N67, daily dose 0.125 mg/kg, 32 mice tested
  Number of mice cured: 2 mice
[3]; N67, daily dose 0.5 mg/kg, 32 mice tested
  Number of mice cured: 28 mice
[3]; N67, daily dose 2.0 mg/kg, 31 mice tested
  Number of mice cured: 31 mice
[3]; strain N67, oral daily for 4 days from day of infection, 21 days observation
  ED50: 0.3 mg/kg
[4]; [6]
  ED50: 3.5 mg/kg
[4]; single dose 0.2 mg/kg, 48 hours after infection, 8 mice tested
  Number of mice cured: 0 mice
[4]; single dose 2.0 mg/kg, 48 hours after infection, 8 mice tested
  Number of mice cured: 1 mice
[4]; single dose 20.0 mg/kg, 48 hours after infection, 8 mice tested
  Number of mice cured: 8 mice
[5]
  LD50: ~1000 mg/kg
mice; 500 mg/kg oral
  Number of mice killed: 0 mice
mice; 1000 mg/kg oral
  Number of mice killed: 3 mice

## CCc1nc(N)nc(N)c1-c1ccc(Cl)cc1 [pyrimethamine, 2,4-diamino-5-(4-chlorophenyl)-6-ethylpyrimidine]
[4]; [6]
  ED50: > 50 mg/kg
[4]; dose 5.0 mg/kg, 8 mice tested
  Number of mice cured: 0 mice
[4]; dose 50.0 mg/kg (maximum tolerated dose), 8 mice tested
  Number of mice cured: 0 mice

## Cc1nc(N)nc(N)c1OCCCOc1ccc(Cl)cc1C1CCCCC1 [reference compound RCA, 2,4-diamino-6-methyl-5-[3-(4-chloro-2-cyclohexylphenoxy)propoxy]pyrimidine, reference compound]
[1]; daily dose 10 mg/kg, 32 mice tested
  Number of mice cured: 0 mice
[1]; daily dose 100 mg/kg, 32 mice tested
  Number of mice cured: 32 mice
[1]
  ED50: 30 mg/kg
dogs; doses higher than 3 mg/kg/day
  Deaths in dogs: deaths occurring at higher doses
dogs; even at doses of 3 mg/kg/day
  Clinical tolerance in dogs: clinically badly tolerated
malaria; fold as active
  Activity against malaria relative to any of the other 34 compounds of B.P. 1546937 tested: at least 4 times
[2]; N30, daily dose 1 mg/kg
  Number of mice cured: 0 mice
[2]; N30, daily dose 10 mg/kg
  Number of mice cured: 5 mice
[2]; N30, daily dose 100 mg/kg
  Number of mice cured: 24 mice
[2]; po
  ED50: 15 mg/kg
[3]; N67, daily dose 1 mg/kg, 32 mice tested
  Number of mice cured: 2 mice
[3]; N67, daily dose 5 mg/kg, 32 mice tested
  Number of mice cured: 17 mice
[3]; N67, daily dose 25 mg/kg, 31 mice tested
  Number of mice cured: 31 mice
[3]; po
  ED50: 5 mg/kg
[4]; po, 24 h, read-out: CD50
  ED50: > 200 mg/kg
[4]; oral dose 200 mg/kg, 24 hours after infection, 8 mice
  Number of mice cured: 2 mice
[5]
  LD50: ~1000 mg/kg
mice; 1000 mg/kg oral
  Number of mice killed: 2 mice
